Columns and labels:
[1] = tested on: L1210 leukemia; assay: Test 16: structure-activity of R'1 substitution, L1210 (Table XII); format: in vivo, mouse (C57B16xDBA/2)F1; conditions: for 60 days surv. / ILS % / Range of death: day +1
Description: Test 16: Relationship between structure and activity of various dipyrido indoles differing by the R'1 substitution.
L1210 leukemia has been maintained by weekly passages on (C57B16xDBA/2)F1 mice. On day 0, mice were inoculated by I.P. route with various numbers of L1210 ascitic tumor cells in volumes of 0.1 ml. Subsequently as indicated, drugs were administrated in Ca^++ and Mg^++ free PBS solutions (Gibco) or in Mac Coy's medium (Gibso or Microbiological Associates). […]

[2] = tested on: mice; assay: Test 21: toxicity after intraperitoneal injection; conditions: for time of deaths after drug administration: IP; for minimal quantity resulting in 100% deaths: ip, 43200 min
Description: All drugs were dissolved in aqueous solutions adjusted at pH 5 with acetic acid and inoculated to the mice under a volume of 0.1 ml I.P. after dilution in Mac Coy's medium.
The toxicity of the drugs after intraperitoneal injection was estimated from the mortality rate up to the 30th day.

[3] = tested on: Lewis carcinoma (3LL); assay: Test 13: Lewis carcinoma, antimetastasic effect; format: in vivo, BDF1 mice
Description: "carcinome pulmonaire de Lewis" (3LL), K. SUGIURA and C. C. STOCK," Cancer Res. 1955 15 38-51.
In this test, cells (10^6 cells) removed from a tumour-carrying mouse were injected into mice(BDF1) by the IM route. The mice developed, 10 to 15 days after the inoculation, a tumour at the spot where the injection was made. On the other hand, these cells made metastasis in the lung, forming colonies on the pulmonary surface. The antitumoral and antimetastasic effect of a product may therefore be judged on mice thus treated.
Investigation of the antimetastasic effect of the compounds of examples 7 and 8 of the invention
10^6 cells taken from a tumour-carrying mouse were injected by the IM route (left-band paw) into groups of 10 mice and the compounds to be tested were inoculated by the IP route on day J+5 by single or fractioned injection. The mean survival time (MST) and the increased life span (ILS %) were determined.

[4] = tested on: L 1210 leukemia; assay: Test 11: L 1210 leukemic mice, examples 7 and 8 (Table VIII); format: in vivo, mouse; parameters: MTS: unit not given beside the values; conditions: J+1
Description: This test was carried out with 10^3, 10^4 and 10^5 leukemic cells on day J. This test was also carried out with the compound of example 7, i.e. 1-[(γ-diethylaminopropyl)amino]-5-methyl-dipyrido [4,3-b][3,4-f] indole (compound 21).

[5] = tested on: L1210 leukemia; assay: Test 17: length of substituting chain, L1210 (Table XIII); format: in vivo, mouse
Description: Test 17: Relationship between the length of the substituting chain and the activity.
However compound 21 is less toxic (50 mg/kg for compound 21 and 25 mg/kg for compound 23), it has a higher ILS% than compound 23 and 1 mouse survived up to 60 days.

[6] = tested on: L 1210 leukemia; assay: Test 10: comparison of antitumoral activity with known products, L 1210 (Tables V-VII); format: in vivo, mouse; conditions: J+3
Description: Test 10: Comparison of the antitumoral activity of the compound according to example 7 with that of known products
The compound of example 7, i.e. 1-(γ-diethylaminopropyl)amino-5-methyl-dipyrido-[4,3-b][3,4-f] indole or known compounds were injected into L 1210 leukemic mice 1 or 3 days after the inoculation of the cells at the doses indicated in tables V to VII and the mean survival time (MST) and the precentage of increased life span (ILS %) were measured.
Indications concerned the known products used in this example and particularly their antitumoral properties, their secondary effects and their use in man may be found in "La Chimiotherapie des Cancers", by G. MATHE and M. KENIS Expansion Scientifique Francaise, 3rd edition, Paris 1975.

[7] = tested on: leukemic cells; assay: Test 20: combination of compound 21 with other drugs (Table XV); conditions: 10^5 cells, BD 40 20 mg/kg day +4, Endoxan 100 mg/kg day +3
Description: A priming dose of endoxan (100 mg/kg) was given 3 days after 10^5 leukemic cells (20 mice).

[8] = tested on: tumoral strain derived from the murine leukemia due to the C. FRIEND virus; assay: Test 7: antitumoral activity in vitro on Friend leukemia tumoral strain; format: cell-based; conditions: HUM = 1
Description: Test 7: Study of the antitumoral activity in vitro
This activity was measured on a tumoral strain derived from the murine leukemia due to the C. FRIEND virus.
The tumoral cells multiply in suspension in a "RPMI 1640" medium (Catalogue of GIBCO Bio-cult. Ltd. Washington Road, Sandyford Industrial Estate, PAISLEY PA 3 4EP, Renfrewshire, Scotland) supplemented with 20% of embryonary calf serum, penicillin and streptomycine. The duplication time of these cells is 11 hours. The growth fraction is equal to 1 or very close to 1 (all the cells are in the cycle). The cultures are sub-culturedat time t=0 at the concentration of 2.10^5 cells per ml in Falcon dishes containing 4 ml of medium. After twenty four hours, the product to be tested was added, i.e. at a moment when the cultures are in exponential phase of growth. Twenty four hours after the addition of the product, the cells are counted and the percentage of living cells determined by an exclusion test using "trypan" blue.

[9] = Table V, 10^4 cells, mg/mouse: example 7 0.2, Thiotepa 0.1, Mitomycine 0.016, BCNU 0.1, Methotrexate 0.250, Endoxan 4
[10] = Table VI, 10^5 cells, mg/mouse: Thiotepa 0.1, Mitomycine C 0.016, BCNU 0.1, Methotrexate 0.250, example 7 0.2, Endoxan 4
[11] = Table V, 10^4 cells, doses mg/mouse: example 7 0.2, Thiotepa 0.1, Mitomycine 0.016, BCNU 0.1, Methotrexate 0.250

Cc1c2ccnc(NCCCN(C)C)c2cc2c1[nH]c1ccncc12 [Example 8, 1-(γ-dimethylaminopropyl)amino-5-methyl-dipyrido-[4,3-b][3,4-f] indole] was tested, and the 60 days surv. ([1]; 10^4 cells, 2.5 mg/kg) was 1, the ILS % ([1]; 10^4 cells, 2.5 mg/kg) was 34.9% and the Range of death ([1]; 10^4 cells, 2.5 mg/kg) was 10-19. The 60 days surv. ([1]; 10^5 cells, 5 mg/kg) was 0, the ILS % ([1]; 10^5 cells, 5 mg/kg) was 52.5% and the Range of death ([1]; 10^5 cells, 5 mg/kg) was 11-16. The “antitumoral activity compared with Ellipticinium acetate (HUM)” value ([1]; Table XII summary) was “compete favorably with Ellipticinium acetate (HUM)”, the “time of deaths after drug administration” value [2] was 3 to 5 days and the “minimal quantity resulting in 100% deaths” value ([2]; mouse, in vivo) was 50 mg/kg. The “protective action concerning metastasic pulmonary invasion of the lung” value ([3]; IP from J+5) was “give a protective action”, the ILS % ([3]; J+5, 5 mg/kg) was 9.8% and the MST ([3]; J+5, 5 mg/kg, controls 25) was 27.44. The ILS % ([4]; 10^3 cells, 0.05 mg/mouse) was 34.9%, the “Number of surviving mice” value ([4]; 10^3 cells, 0.05 mg/mouse) was 1 and the ILS % ([4]; 10^3 cells, 0.1 mg/mouse) was 50.5%. The MTS ([4]; 10^3 cells, 0.1 mg/mouse) was 16.4, the “Number of surviving mice” value ([4]; 10^3 cells, 0.1 mg/mouse) was 3 and the ILS % ([4]; 10^4 cells, 0.05 mg/mouse) was 34.9%. The “Number of surviving mice” value ([4]; 10^4 cells, 0.05 mg/mouse) was 1, the ILS % ([4]; 10^4 cells, 0.1 mg/mouse) was 25.7% and the MTS ([4]; 10^4 cells, 0.1 mg/mouse) was 13.7. The “Number of surviving mice” value ([4]; 10^4 cells, 0.1 mg/mouse) was 3, the ILS % ([4]; 10^5 cells, 0.05 mg/mouse) was 28.1% and the MTS ([4]; 10^5 cells, 0.05 mg/mouse) was 11.6. It also gave an ILS % ([4]; 10^5 cells, 0.1 mg/mouse) of 52.5% and an MTS ([4]; 10^5 cells, 0.1 mg/mouse) of 13.8.

Cc1c2ccnc(NCCN(C)C)c2cc2c1[nH]c1ccncc12 [Example 9, 1-(β-dimethylaminoethyl)amino-5-methyl-dipyrido-[4,3-b][3,4-f] indole] was tested, and the “activity against L1210 leukemia (in words)” value ([5]; Table XIII summary) was “active against L1210 leukemia”, the ILS % ([5]; day +1) was 65.2% and the “Survivors up to 60 days” value ([5]; day +1) was 0. For the same compound, the MST ([5]; day +1, control MST 8.8) was 14.6, the Range of death ([5]; day +1, control MST 8.8) was 11-18 and the “time of deaths after drug administration” value [2] was 4 to 6 days. For the same compound, the “toxicity (toxic dose)” value ([2]; mouse, in vivo) was 25 mg/kg and the “minimal quantity resulting in 100% deaths” value ([2]; mouse, in vivo) was 25 mg/kg.

For O=P1(N(CCCl)CCCl)NCCCO1 (stereo not shown) [Endoxan], the “mice alive on 30th day (of 10)” value ([6]; Table V, 10^4 cells, Endoxan 4 mg/mouse) was 3, the Range of death [6, 9] was 13 days and the ILS % [6, 10] was 105.30%. For the same compound, the “MTS (mean survival time)” value [6, 10] was 18.6, the Range of death [6, 10] was 15-21 and the ILS % ([7]; BCNU 2 mg/kg) was 16.9%. The Range of death ([7]; BCNU 2 mg/kg immediately after endoxan) was 11-17 and the MST ([7]; BCNU 2 mg/kg, control 11.2) was 13.1.

For Cc1c2cc[nH]c(=O)c2cc2c1[nH]c1ccncc12 [Example 5, 1,2-dihydro-1-oxo 5-methyl-dipyrido-[4,3-b][3,4-f] indole], the “Activity (ratio of the LD50 of HUM to the LD50 of the product tested)” value [8] was 0.15.

With CO[C@@]12[C@H](COC(N)=O)C3=C(C(=O)C(C)=C(N)C3=O)N1C[C@@H]1N[C@@H]12 [Mitomycine C] the ILS % [6, 11] was 4.95%, the “MTS (mean survival time)” value [6, 11] was 11.54 and the Range of death [6, 9] was 10 to 15 days. For the same compound, the ILS % [6, 10] was 0%, the “MTS (mean survival time)” value [6, 10] was 9.06 and the Range of death [6, 10] was 9-10.

Source: patent US4444776A, “Dipyrido (4,3-B) (3,4-F) indoles, process for obtaining them, therapeutical use and pharmaceutical compositions” (priority 1977, dated 1984)
